Activity calls are given as the source filed them. The calls are words filed in the database; no cut-off is given here.
How the values were obtained:
Schistocerca americana [1] = experiment: Antifeedant activity against Schistocerca americana in compound treated Citrus paradisi MacFad (Rutaceae) potted plants assessed as area consumed from leaf disk measured under different 12 hr sunlight exposure at 18 g/l by No-choice tests; type: functional, organism-based
Schistocerca americana [2] = experiment: Antifeedant activity against Schistocerca americana in compound treated Citrus paradisi MacFad (Rutaceae) potted plants assessed as area consumed from leaf disk measured under 4 hr sunlight exposure at 5.6 ml/l by No-choice tests; type: functional, organism-based
Schistocerca americana [3] = experiment: Antifeedant activity against Schistocerca americana in compound treated healthy romaine lettuce plants assessed as area consumed from leaf disk at 5.6 ml/l by No-choice tests (3.10 +/- 0.1 cm'2); type: functional
Diaprepes abbreviatus [4] = experiment: Antifeedant activity against Diaprepes abbreviatus in compound treated healthy romaine lettuce plants assessed as area consumed from leaf disk at 5.6 ml/l by No-choice tests (1.40 +/- 0.1 cm'2); type: functional
Schistocerca americana [5] = experiment: Antifeedant activity against Schistocerca americana in compound treated Citrus paradisi MacFad (Rutaceae) potted plants assessed as area consumed from leaf disk measured under 8 hr sunlight exposure at 5.6 ml/l by No-choice tests; type: functional, organism-based
Schistocerca americana [6] = experiment: Antifeedant activity against Schistocerca americana in compound treated Citrus paradisi MacFad (Rutaceae) potted plants assessed as area consumed from leaf disk measured under 8 hr sunlight exposure at 18 g/l by No-choice tests; type: functional, organism-based
Schistocerca americana [7] = experiment: Antifeedant activity against Schistocerca americana in compound treated Citrus paradisi MacFad (Rutaceae) potted plants assessed as area consumed from leaf disk measured under different 8 hr sunlight exposure at 18 g/l by No-choice tests; type: functional, organism-based
Schistocerca americana [8] = experiment: Antifeedant activity against Schistocerca americana in compound treated Citrus paradisi MacFad (Rutaceae) potted plants assessed as area consumed from leaf disk measured under different 4 hr sunlight exposure at 18 g/l by No-choice tests; type: functional, organism-based
Schistocerca americana [9] = experiment: Antifeedant activity against Schistocerca americana in compound treated Citrus paradisi MacFad (Rutaceae) potted plants assessed as area consumed from leaf disk measured under 4 hr sunlight exposure at 18 g/l by No-choice tests; type: functional, organism-based
Schistocerca americana [10] = experiment: Antifeedant activity against Schistocerca americana in compound treated healthy romaine lettuce plants assessed as area consumed from leaf disk at 5.6 ml/l by choice tests (2.62 +/- 0.1 cm'2); type: functional
Diaprepes abbreviatus [11] = experiment: Antifeedant activity against Diaprepes abbreviatus in compound treated healthy romaine lettuce plants assessed as area consumed from leaf disk at 5.6 ml/l by choice tests (1.45 +/- 0.1 cm'2); type: functional
Schistocerca americana [12] = experiment: Antifeedant activity against Schistocerca americana in compound treated healthy romaine lettuce plants assessed as area consumed from leaf disk at 48 g/l by choice tests (1.88 +/- 0.2 cm'2); type: functional
Diaprepes abbreviatus [13] = experiment: Antifeedant activity against Diaprepes abbreviatus in compound treated healthy romaine lettuce plants assessed as area consumed from leaf disk at 48 g/l by choice tests (1.47 +/- 0.1 cm'2); type: functional
Diaprepes abbreviatus [14] = experiment: Antifeedant activity against Diaprepes abbreviatus in compound treated healthy romaine lettuce plants assessed as area consumed from leaf disk at 48 g/l by No-choice tests (2.51 +/- 0.2 cm'2); type: functional
Diaprepes abbreviatus [15] = experiment: Antifeedant activity against Diaprepes abbreviatus in compound treated Citrus paradisi MacFad (Rutaceae) potted plants assessed as reduction in leaf consumption measured under 4 hr sunlight exposure at 5.6 ml/l by No-choice tests; type: functional, organism-based
Diaprepes abbreviatus [16] = experiment: Antifeedant activity against Diaprepes abbreviatus in compound treated Citrus paradisi MacFad (Rutaceae) potted plants assessed as reduction in leaf consumption measured under 8 hr sunlight exposure at 5.6 ml/l by No-choice tests; type: functional, organism-based
Diaprepes abbreviatus [17] = experiment: Antifeedant activity against Diaprepes abbreviatus in compound treated Citrus paradisi MacFad (Rutaceae) potted plants assessed as reduction in leaf consumption measured under 12 hr sunlight exposure at 5.6 ml/l by No-choice tests; type: functional, organism-based
Schistocerca americana [18] = experiment: Antifeedant activity against Schistocerca americana in compound treated healthy romaine lettuce plants assessed as area consumed from leaf disk at 18 g/l by No-choice tests (3.14 +/- 0.1 cm'2); type: functional
Diaprepes abbreviatus [19] = experiment: Antifeedant activity against Diaprepes abbreviatus in compound treated Citrus paradisi MacFad (Rutaceae) potted plants assessed as reduction in leaf consumption measured under 12 hr sunlight exposure at 18 g/l by No-choice tests; type: functional, organism-based
Diaprepes abbreviatus [20] = experiment: Antifeedant activity against Diaprepes abbreviatus in compound treated healthy romaine lettuce plants assessed as area consumed from leaf disk at 18 g/l by choice tests (1.19 +/- 0.1 cm'2); type: functional
Schistocerca americana [21] = experiment: Antifeedant activity against Schistocerca americana in compound treated healthy romaine lettuce plants assessed as area consumed from leaf disk at 18 g/l by choice tests (2.28 +/- 0.1 cm'2); type: functional
Diaprepes abbreviatus [22] = experiment: Antifeedant activity against Diaprepes abbreviatus in compound treated healthy romaine lettuce plants assessed as area consumed from leaf disk at 18 g/l by No-choice tests (2.48 +/- 0.1 cm'2); type: functional
Diaprepes abbreviatus [23] = experiment: Antifeedant activity against Diaprepes abbreviatus in compound treated Citrus paradisi MacFad (Rutaceae) potted plants assessed as reduction in leaf consumption measured under 4 hr sunlight exposure at 18 g/l by No-choice tests; type: functional, organism-based
Diaprepes abbreviatus [24] = experiment: Antifeedant activity against Diaprepes abbreviatus in compound treated Citrus paradisi MacFad (Rutaceae) potted plants assessed as reduction in leaf consumption measured under 8 hr sunlight exposure at 18 g/l by No-choice tests; type: functional, organism-based
Diaprepes abbreviatus [25] = experiment: Antifeedant activity against Diaprepes abbreviatus in compound treated healthy romaine lettuce plants assessed as area consumed from leaf disk at 31.3 ml/l by choice tests (1.39 +/- 0.1 cm'2); type: functional
Schistocerca americana [26] = experiment: Antifeedant activity against Schistocerca americana in compound treated healthy romaine lettuce plants assessed as area consumed from leaf disk at 31.3 ml/l by choice tests (1.79 +/- 0.2 cm'2); type: functional

## C/C=C(\C)C(=O)O[C@H]1C[C@@H](OC(C)=O)[C@@]2(C(=O)OC)CO[C@H]3[C@@H](O)[C@@](C)([C@]45O[C@@]4(C)[C@@H]4C[C@H]5O[C@@H]5OC=C[C@@]54O)[C@H]4[C@]1(CO[C@]4(O)C(=O)OC)[C@@H]32 [AZADIRACHTIN A]
Schistocerca americana [1]
  Activity: inactive
Schistocerca americana [2]
  Activity: inactive
Schistocerca americana [3]
  Activity: 0.29 cm2
Diaprepes abbreviatus [4]
  Activity: 1.8 cm2
Schistocerca americana [5]
  Activity: Active
Schistocerca americana [6]
  Activity: Active
Schistocerca americana [7]
  Activity: inactive
Schistocerca americana [8]
  Activity: inactive
Schistocerca americana [9]
  Activity: inactive
Schistocerca americana [10]
  Activity: 0.4 cm2
Diaprepes abbreviatus [11]
  Activity: 0.74 cm2

## C=C(C)[C@H]1Cc2c(ccc3c2O[C@@H]2COc4cc(OC)c(OC)cc4[C@@H]2C3=O)O1 [ROTENONE]
Schistocerca americana [12]
  Activity: 1.64 cm2
Diaprepes abbreviatus [13]
  Activity: 0.24 cm2
Diaprepes abbreviatus [14]
  Activity: 2.42 cm2
Diaprepes abbreviatus [15]
  Activity: inactive
Diaprepes abbreviatus [16]
  Activity: inactive
Diaprepes abbreviatus [17]
  Activity: inactive

## CC(C)[C@@]1(O)[C@@H](OC(=O)c2cc[nH]c2)[C@@]2(O)[C@]3(C)C[C@@]4(O)O[C@@]5([C@H](O)[C@@H](C)CC[C@]35O)[C@@]2(O)[C@@]41C [RYANODINE]
Schistocerca americana [1]
  Activity: inactive
Schistocerca americana [18]
  Activity: 2.35 cm2
Diaprepes abbreviatus [19]
  Activity: inactive
Diaprepes abbreviatus [20]
  Activity: 0.48 cm2
Schistocerca americana [21]
  Activity: 0.76 cm2
Diaprepes abbreviatus [22]
  Activity: 1.46 cm2
Diaprepes abbreviatus [23]
  Activity: inactive
Schistocerca americana [7]
  Activity: inactive
Schistocerca americana [8]
  Activity: inactive
Diaprepes abbreviatus [24]
  Activity: inactive

## COc1cc(CNC(=O)CCCC/C=C/C(C)C)ccc1O [CAPSAICIN]
Diaprepes abbreviatus [25]
  Activity: 1.02 cm2
Schistocerca americana [26]
  Activity: 1.08 cm2

Source: ChEMBL document CHEMBL3046692, “Antifeedant effect of commercial chemicals and plant extracts against Schistocerca americana (Orthoptera: Acrididae) and Diaprepes abbreviatus (Coleoptera: Curculionidae)” (2011)
